Test system: progressive or recurrent brain cancers
Assay: Tumor response by MRI (RANO criteria), PFS, survival, cycles received
Assay type: in vivo, human
Experimental: Tumor response was assessed by MRI after every 2 treatment cycles, or earlier if clinically indicated, according to the Response Assessment in Neuro-Oncology criteria.

[1] = 21 patients evaluable for efficacy
[2] = dose cohort 1 (80 mg every 4 days)
[3] = dose cohort 1 (80 mg every 4 days), 2 response-evaluable
[4] = dose cohort 2 (120 mg every 4 days)
[5] = dose cohort 2 (120 mg every 4 days), 3 response-evaluable
[6] = dose cohort 3 (180 mg every 4 days)
[7] = dose cohort 3 (180 mg every 4 days), 6 response-evaluable
[8] = dose cohort 4 (280 mg every 7 days), 10 response-evaluable

CN(C)C/C=C/C(=O)Nc1cc2c(Nc3ccc(F)c(Cl)c3)ncnc2cc1O[C@H]1CCOC1 [Afatinib]
Disease stabilization, % of patients [1]: 14.3%
Disease stabilization, No. of patients [1]: 3
Partial response (RANO), % of patients [1]: 9.5%
Partial response (RANO), No. of patients [1]: 2
Progressive disease, No. of patients [1]: Sixteen
Median overall survival (all patients): 10.3 months
PFS, Median [2]: 44 days
PFS, Range [2]: 32 to 56 days
Best Response CR, No. of patients [3]: 0
Best Response PD, No. of patients [3]: 2
Best Response PR, No. of patients [3]: 0
Best Response SD, No. of patients [3]: 0
PFS, Median [4]: 42 days
PFS, Range [4]: 29 to 106 days
Best Response CR, No. of patients [5]: 0
Best Response PD, No. of patients [5]: 2
Best Response PR, No. of patients [5]: 1
Best Response SD, No. of patients [5]: 0
PFS, Median [6]: 78 days
PFS, Range [6]: 20 to 261 days
Best Response CR, No. of patients [7]: 0
Best Response PD, No. of patients [7]: 4
Best Response PR, No. of patients [7]: 0
Best Response SD, No. of patients [7]: 2
PFS, Median (dose cohort 4 (280 mg every 7 days)): 56 days
Best Response CR, No. of patients [8]: 0
Best Response PD, No. of patients [8]: 8
Best Response PR, No. of patients [8]: 1
Best Response SD, No. of patients [8]: 1
Median overall survival (glioblastoma): 5.2 months
Median progression-free survival (overall): 2.0 months
Progression-free survival rate at 6 months (PFS6) (patients with glioblastoma (n = 16)): 0%

From PMC11046985 (Neuro-Oncology Advances, 2024)
